Test results from US5994334A, “Androgen synthesis inhibitors” (priority 1997, dated 1999).

What was measured:
5α-reductase = conditions: cited from earlier work
[1] = in vivo; cited from earlier work
TRPM-2 gene = conditions: vs castration; cited from earlier work
[2] = target: T1, Human Prostatic 5α-Reductase (Homo sapiens, UniProt P31213); test: Inhibition of human prostatic 5α-reductase (prostatic microsomes, [3H]testosterone); conditions: for IC50: IC50 5α-reductase; for inhibition at 0.01 µM: read-out: % Inhibition of 5α-reductase, [I] 10 nM; for inhibition at 0.1 µM: read-out: % Inhibition of 5α-reductase, [I] 100 nM
T1 sequence (P31213 1-254): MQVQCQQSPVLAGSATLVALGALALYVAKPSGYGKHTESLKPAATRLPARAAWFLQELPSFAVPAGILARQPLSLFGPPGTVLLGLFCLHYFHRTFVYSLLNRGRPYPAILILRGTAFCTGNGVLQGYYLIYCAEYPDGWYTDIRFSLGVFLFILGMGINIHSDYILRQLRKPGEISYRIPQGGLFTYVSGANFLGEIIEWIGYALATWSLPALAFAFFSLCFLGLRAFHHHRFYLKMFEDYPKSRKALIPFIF

[3] = system: 5α-reductase Type I and Type II isoforms; conditions: cited from earlier work
[4] = system: LNCaP human prostatic cancer cell line; test: Androgen-dependent growth of LNCaP cells; conditions: for reversal of DHT-stimulated LNCaP growth (in words): 0.03 nM DHT; for stimulation of LNCaP cell proliferation (in words): hydroxyflutamide 0.3-1 μM
Method: The ability of various inhibitors to reverse the stimulatory effect of testosterone on the growth of the LNCaP human prostatic cancer cell line was tested by comparing cell number in wells treated for 9 days with either drug vehicle only (control), 0.1 nM testosterone only, or 0.1 nM testosterone with inhibitor at 0.3, 1, 2.5, or 5 μM.

BPH patients = conditions: cited from earlier work; for serum testosterone levels (in words): human, in vivo
[5] = system: cytochrome P450 steroidogenic enzymes; conditions: human, in vivo; cited from earlier work
[6] = system: 17α-hydroxylase/C17,20-lyase; conditions: cited from earlier work
C17,20-lyase = conditions: [3H]-progesterone substrate; read-out: IC50 C17,20-lyase (Potter et al.); cited from earlier work
mutant androgen receptor = conditions: cited from earlier work
[7] = system: breast cancers in postmenopausal patients; conditions: human, in vivo; cited from earlier work
17α-hydroxylase = conditions: [3H]-progesterone substrate; read-out: IC50 17α-hydroxylase (Potter et al.); cited from earlier work
dogs = conditions: vs finasteride; cited from earlier work
[8] = system: patients with prostatic cancer; conditions: combined with GnRH or orchidectomy vs GnRH agonist or orchidectomy alone; cited from earlier work
[9] = system: human prostatic tissue (BPH or prostate cancer); test: Prostate tissue in histoculture, DNA synthesis ([3H]-thymidine uptake); conditions: inhibitor 1 μM; testosterone 1 μM; FIG. 1
Method: We recently developed a histoculture method to evaluate the growth inhibiting properties of the compounds on human prostatic tissue. […] The tissue samples were then incubated for 3 days in fresh medium/treatment containing 2 μCi/ml [^3 H]-thymidine. Tissue was then digested and DNA extracted. For each sample, [^3 H]-thymidine uptake was normalized to DNA content. […] This finding is consistent with the compound acting as an antiandrogen. None of the compounds produced an independent effect on DNA synthesis in the absence of added androgens.

[10] = system: mutant AR which is expressed in LNCaP cells; test: Androgen receptor-mediated gene transcription, mutant AR of LNCaP cells (luciferase, CV1 cells); type: cell-based, human
rat C17,20-lyase = rat C17,20-lyase (Rattus norvegicus, UniProt P11715); test: Inhibition kinetics of rat C17,20-lyase, 17α-hydroxyprogesterone substrate; type: biochemical; conditions: 17α-hydroxyprogesterone as substrate; vs. Km 76 nM
Sequence of rat C17,20-lyase (P11715 whole entry): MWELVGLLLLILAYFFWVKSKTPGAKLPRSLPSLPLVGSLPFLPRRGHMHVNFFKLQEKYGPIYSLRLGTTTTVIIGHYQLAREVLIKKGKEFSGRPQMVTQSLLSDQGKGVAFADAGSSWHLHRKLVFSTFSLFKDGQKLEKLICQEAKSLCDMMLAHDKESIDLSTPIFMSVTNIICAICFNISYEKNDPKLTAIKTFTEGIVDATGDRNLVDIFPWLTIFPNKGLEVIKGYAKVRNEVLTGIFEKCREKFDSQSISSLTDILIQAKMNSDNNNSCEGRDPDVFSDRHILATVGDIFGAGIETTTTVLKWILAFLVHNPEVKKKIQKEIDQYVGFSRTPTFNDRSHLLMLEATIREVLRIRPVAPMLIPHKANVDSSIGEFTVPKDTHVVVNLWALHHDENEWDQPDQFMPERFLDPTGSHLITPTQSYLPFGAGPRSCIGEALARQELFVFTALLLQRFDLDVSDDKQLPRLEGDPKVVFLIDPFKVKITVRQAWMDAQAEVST
Text: (§1) Studies in normal male rats have been carried out with 4-pregnen-3-one-20β-carboxaldehyde (I-16) (Li et al., 1992) and with its 20-carboxaldoxime (I-23)(Li et al., 1995).

[11] = target: T1, Human Prostatic 5α-Reductase; test: biochemical
[12] = system: rat 17α-hydroxylase/C17,20-lyase; test: Inhibition of rat 17α-hydroxylase/C17,20-lyase; type: biochemical
Text: as §1

rat 17α-hydroxylase = rat 17α-hydroxylase (Rattus norvegicus, UniProt P11715); test: Inhibition kinetics of rat 17α-hydroxylase, progesterone substrate; type: biochemical
Sequence of rat 17α-hydroxylase (P11715 whole entry): as above
Text: as §1

[13] = target: human androgen receptor (AR) (Homo sapiens, UniProt P10275); test: Androgen receptor-mediated gene transcription, wild-type AR (luciferase, CV1 cells); type: cell-based; conditions: against DHT stimulation
Sequence of human androgen receptor (AR) (P10275 whole entry): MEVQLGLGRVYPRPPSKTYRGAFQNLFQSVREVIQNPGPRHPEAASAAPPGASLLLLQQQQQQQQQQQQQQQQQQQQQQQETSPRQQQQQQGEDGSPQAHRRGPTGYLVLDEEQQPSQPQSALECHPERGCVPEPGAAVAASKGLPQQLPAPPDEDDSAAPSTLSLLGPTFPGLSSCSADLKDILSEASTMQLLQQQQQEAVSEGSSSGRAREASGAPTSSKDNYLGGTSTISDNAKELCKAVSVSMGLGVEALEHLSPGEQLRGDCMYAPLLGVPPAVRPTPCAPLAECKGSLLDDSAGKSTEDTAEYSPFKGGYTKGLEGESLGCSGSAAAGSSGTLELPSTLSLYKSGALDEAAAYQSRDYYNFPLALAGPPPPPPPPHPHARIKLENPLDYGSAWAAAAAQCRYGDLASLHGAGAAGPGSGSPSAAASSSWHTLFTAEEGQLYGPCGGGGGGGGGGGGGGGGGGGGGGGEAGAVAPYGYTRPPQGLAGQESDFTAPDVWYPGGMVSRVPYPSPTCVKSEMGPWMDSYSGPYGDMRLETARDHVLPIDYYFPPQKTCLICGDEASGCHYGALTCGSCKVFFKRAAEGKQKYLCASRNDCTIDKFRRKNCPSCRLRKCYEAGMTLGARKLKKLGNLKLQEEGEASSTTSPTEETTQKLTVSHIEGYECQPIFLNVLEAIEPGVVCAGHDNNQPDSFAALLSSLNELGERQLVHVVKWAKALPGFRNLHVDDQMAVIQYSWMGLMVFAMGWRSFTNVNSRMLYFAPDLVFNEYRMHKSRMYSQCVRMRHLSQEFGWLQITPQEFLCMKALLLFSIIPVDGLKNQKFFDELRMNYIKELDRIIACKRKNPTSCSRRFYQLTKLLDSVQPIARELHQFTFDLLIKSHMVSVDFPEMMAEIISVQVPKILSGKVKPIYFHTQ

normal male rats = test: In vivo studies in normal male rats: hormone levels; design: species or system rat
Text: as §1

[14] = 50 mg/kg/day sc, 21 days, vs control
[15] = 50 mg/kg/day sc, 21 days, vs vehicle

CC(=O)[C@H]1CC[C@H]2[C@@H]3CCC4=CC(=O)CC[C@]4(C)[C@H]3CC[C@]12C [Progesterone]
inhibition of 5α-reductase, literature (in words) (5α-reductase): potent 5α-reductase inhibitor | metabolism and oral activity (in words) [1]: rapid metabolism in the body and lack of oral activity

CC(C)(C)NC(=O)[C@H]1CC[C@H]2[C@@H]3CC[C@H]4NC(=O)C=C[C@]4(C)[C@H]3CC[C@]12C [Finasteride, reference compound]
TRPM-2 expression (in words) (TRPM-2 gene): not by finasteride treatment | IC50 [2]: 0.014 µM | IC50 ([2]; Table 2): 0.014 µM | IC50 ([2]; Table 3, NI = no inhibition): 0.0144 µM | inhibition at 0.01 µM [2]: 41.2% | inhibition at 0.1 µM [2]: 88.3% | inhibition at 0.4 µM ([2]; read-out: % Inhibition of 5α-reductase, [I] 400 nM): 93% | potency at 5α-reductase Type II vs Type I (in words) [3]: more potent inhibitor of the Type II than of the Type I isoform | reversal of DHT-stimulated LNCaP growth (in words) [4]: dose-dependent reversal | reversal of testosterone-stimulated LNCaP growth at 5 μM (in words) ([4]; 0.1 nM testosterone, inhibitor 5 μM): almost completely reversed | reversal of testosterone-stimulated LNCaP growth (in words) ([4]; 0.1 nM testosterone, inhibitor 0.3-5 μM, 9 days): dose-dependent reversal | IC50 ([4]; Homo sapiens, LNCaP, 216 h, read-out: concentration reducing the stimulatory effect of testosterone by 50%): ≤ 1 µM | serum testosterone levels (in words) (BPH patients): increase serum testosterone levels | gynecomastia in long-term treatment (in words) (BPH patients; long-term treatment): some patients developed gynecomastia which led to breast cancer in a few cases | reduction of serum DHT (BPH patients; patients): 65-80%

CC(=O)N1CCN(c2ccc(OCC3COC(Cn4ccnc4)(c4ccc(Cl)cc4Cl)O3)cc2)CC1 (stereo not drawn) [Ketoconazole]
side-effects (in words) [5]: inhibition of several other cytochrome P450 steroidogenic enzymes, and reduction of cortisol production | inhibition of 17α-hydroxylase/C17,20-lyase, literature (in words) [6]: not very potent | IC50 (C17,20-lyase): 0.026 µM

CC(C)(O)C(=O)Nc1ccc([N+](=O)[O-])c(C(F)(F)F)c1 [hydroxyflutamide, reference compound]
effect on mutant AR / prostatic cell growth (in words) (mutant androgen receptor): agonist activity for the mutant androgen receptor of LNCaP cells | stimulation of LNCaP cell proliferation (in words) ([4]; 0.1 nM testosterone): stimulated cell proliferation

C[C@]12CCC(=O)C(O)=C1CC[C@@H]1[C@@H]2CC[C@]2(C)C(=O)CC[C@@H]12 [Compound 4-OHA, 4-hydroxyandrostene-3,17-dione]
side effects (in words) [7]: without significant side effects

C[C@]12CC[C@H](O)CC1=CC[C@@H]1[C@@H]2CC[C@]2(C)C(c3cccnc3)=CC[C@@H]12 [CB7598, 17-(3'-pyridyl)androsta-5,16-diene-3-ol]
inhibition of 5α-reductase, literature (in words) (5α-reductase): no activity | IC50 (17α-hydroxylase): 0.004 µM | IC50 (C17,20-lyase): 0.0029 µM

C[C@]12C=CC(=O)N[C@@H]1CC[C@@H]1[C@@H]2CC[C@]2(C)[C@@H](C(=O)c3ccccc3)CC[C@@H]12 [MK-434]
reduction of prostatic DHT in dogs (in words) (dogs): reduces prostatic DHT levels in dogs more effectively than finasteride | serum testosterone levels (in words) (BPH patients): increase serum testosterone levels

CC(C)C(=O)Nc1ccc([N+](=O)[O-])c(C(F)(F)F)c1 [flutamide, reference compound]
progression-free survival (in words) [8]: increased progression-free survival time | reversal of testosterone-stimulated DNA synthesis (in words), 1 μM [9]: almost complete reversal

C[C@H](C=NO)[C@H]1CC[C@H]2[C@@H]3CCC4=CC(=O)CC[C@]4(C)[C@H]3CC[C@]12C [Compound I-23, 3-oxo-4-pregnene-20β-carboxaldehyde oxime]
agonism/antagonism at mutant AR of LNCaP cells (in words) [10]: agonists | Ki (rat C17,20-lyase): 0.018 µM | IC50 ([2]; Table 2): 0.106 µM | inhibition of 5α-reductase (in words) ([2]; NI = no inhibition): potent inhibition of 5α-reductase | inhibition at 0.01 µM [2]: 14.7% | inhibition at 0.1 µM [2]: 85.8% | Ki [11]: 0.0014 µM | inhibition of rat 17α-hydroxylase/C17,20-lyase (in words) [12]: inhibit rat 17α-hydroxylase/C17,20 -lyase | Ki (rat 17α-hydroxylase): 0.074 µM | antagonism of wild-type AR (in words) [13]: dose-dependent antagonism | reversal of DHT-stimulated LNCaP growth (in words) [4]: stimulation of growth above the level produced by DHT | stimulation of LNCaP cell proliferation (in words) ([4]; 0.1 nM testosterone): stimulated cell proliferation | decrease of prostatic DHT (normal male rats; [14]): 44% | decrease of prostatic testosterone (normal male rats; [14]): 60% | serum LH concentration (in words) (normal male rats; [14]): unchanged | reduction of serum testosterone (normal male rats; [15]): 65% | reduction of testicular testosterone (normal male rats; [15]): 59% | reduction of testosterone and DHT levels in serum, testicular and prostatic tissues (in words) (normal male rats; rat): significantly reducing testosterone and DHT levels
